This note sets out measurements from the METLIN SMRT retention time set (Domingo-Almenara et al. 2019).

SMILES strings stand for the structures.

The data set can be described thus: gradient 5% acetonitrile 3 min, to 50% in 2 min, to 85% in 15 min, held 3 min, 100 µL/min. To be noted: column: Zorbax Extend-C18 2.1 x 50 mm; eluents: water / acetonitrile, 0.1% formic acid. The gist of the method: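 Values are retention times taken from adduct peaks that software picked and an analyst inspected. The pure standards were run as mixtures of ~100 molecules on HPLC linked to a quadrupole time-of-flight mass spectrometer, in positive and negative ionization mode. A Zorbax Extend-C18 column (2.1 × 50 mm, 1.8 μm) was used at 100 μL/min with water and acetonitrile, each including 0.1% formic acid.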
The compound `CCCNC(=O)C1CCN(c2ccc(SCC(=O)Nc3ccc(F)c(Cl)c3)nn2)CC1` gave an RP-LC retention time of 692 s.
With `CC(C)NC(=O)N(C1CCOCC1)C1CN(C(=O)c2cncc(Br)c2)C1`, the RP-LC retention time was 604 s.
As to `O=C1CC(NC(=O)COc2ccc(F)cc2)CN1` (centres undefined), the RP-LC retention time came to 586 s.
The value for `CCC1CN1P1(=O)OCC(C)([N+](=O)[O-])CO1` (centres undefined) was 721 s; that for `Cc1ccc2c(Nc3ccc(F)cc3)c(C(=O)N3CCCC3)cnc2n1` was 594 s.
`Cc1ccc(CNC(=O)Cn2cc(C(=O)N3CCCC3)c(=O)c3ccc(C)nc32)cc1` returned an RP-LC retention time of 694 s.
Turning to `CS(=O)(=O)Nc1cccc(NC(=O)c2ccc(N3CCCC3)nn2)c1`, the RP-LC retention time was 598 s.
The value for `Cc1cc(C)c(S(=O)(=O)N(CCN2CCCCC2C)CC(=O)N2CCNCC2)cc1C` (centres undefined) was 601 s; that for `Cc1nc(OCC(=O)Nc2ccc(F)cc2F)c2ccccc2n1` was 742 s; that for `O=C(NCCc1ccco1)c1ccc2ccnc(N3CCN(c4ccc(Cl)cc4)CC3)c2c1` was 887 s.
With `Cn1ncc(Br)c1C(=O)N1CCCC1c1cccc(F)c1` (centres undefined), the RP-LC retention time is 867 s.
Compound `CCn1cc(CN2CCC(C(=O)NC(C)CCc3ccccc3)CC2)c2cc(Cl)ccc21` (centres undefined) registered an RP-LC retention time of 672 s.
`Cc1cccc(-c2nnc(-c3ccc(Cl)c(S(=O)(=O)N4CCCCC4)c3)o2)c1`: the RP-LC retention time turned out to be 1250 s.
`O=C(NCc1ccccc1Cl)C(=O)NCC(c1ccc2c(c1)OCO2)N1CCOCC1` (centres undefined) gave an RP-LC retention time of 678 s.
The compound `COc1cccc(NS(=O)(=O)c2c(C)nn(-c3ccc(-c4ccc(C)cc4)nn3)c2C)c1` had an RP-LC retention time of 1080 s.
Take `COc1ccc(NC(=O)C2CC(=O)N(c3n[nH]c4cccc(F)c34)C2)cc1` (centres undefined): the RP-LC retention time turned out to be 717 s.
Regarding `O=C(CCc1ccccc1)NCC1CCN(Cc2ccccn2)CC1`, the RP-LC retention time is 556 s.
Take `Nc1cc(C2CCN(C(=O)Nc3ccccc3Cl)CC2)no1`: the RP-LC retention time amounted to 698 s.
For the compound `O=C(Cn1nc(N2CCCC2)c2ccccc2c1=O)Nc1ccc(F)c(F)c1`, the RP-LC retention time came out at 950 s.
With `CC(C)(C)C(O)CCNC(=O)C1(c2ccc(F)cc2)CC1` (centres undefined), the RP-LC retention time was 823 s.
Compound `COc1ccc2c(CCNC(=O)c3cc(OC)c(OC)c(OC)c3)c[nH]c2c1` returned an RP-LC retention time of 758 s.
Take `Cc1cc(C)cc(-n2ccnc(NC(=O)Nc3cccc(F)c3)c2=O)c1`: the RP-LC retention time turned out to be 1020 s.
The compound `CCc1ccc(-c2ccc(=O)n(CCc3nc(-c4ccc5c(c4)OCO5)no3)n2)cc1` came in with an RP-LC retention time of 1070 s.
For the compound `CCc1noc(NC(C)=O)c1-c1ccc(C)c(S(=O)(=O)Nc2cc(OC)ccc2OC)c1`, the RP-LC retention time was determined as 819 s.
For the compound `O=C(Cc1ccsc1)Nc1cccn2ncnc12`, the RP-LC retention time was found to be 699 s.
As for `O=c1oc2cc(S(=O)(=O)NCCO)ccc2c2ccc(S(=O)(=O)NCCO)cc12`, the RP-LC retention time came out at 589 s.
As for `O=C(Cn1nc2n(c1=O)CCCC2)Nc1cccc(C(F)(F)F)c1`, the RP-LC retention time is 705 s.
The compound `COc1ccc(Cl)cc1NC(=O)NC(C)C(=O)N1CCc2ccccc21` (centres undefined) yielded an RP-LC retention time of 1000 s.
`CCc1nn2c(CNC(=O)c3ccc(F)c(Cl)c3)c(C)nc2s1` had an RP-LC retention time of 710 s.
Consider `COc1ccc(C(=O)N2CC(n3cc(COCC4CC4)nn3)C2)cc1`, for which the RP-LC retention time came out at 712 s.
For `CCc1ccc(N2C(=O)CN(S(C)(=O)=O)CC2(C)C(=O)NCc2ccc(Cl)cc2)cc1` (centres undefined), the RP-LC retention time worked out at 874 s.
In turn, `Cc1cnc(C(=O)N[C@@H]2CCC[C@@H]2C(=O)NCC2CCCCC2)cn1` returned an RP-LC retention time of 742 s.
With `CCOC(=O)c1ccc(NC(=O)c2ccc3c(c2)N(C)C2CCCCN2C3=O)cc1` (centres undefined), the RP-LC retention time was 896 s.
Compound `CC(C)CNC(=O)c1ccc2c(c1)CCCN2S(C)(=O)=O` had an RP-LC retention time of 774 s.
For `O=C1CC(c2noc(Cc3ccc(F)cc3)n2)CN1c1ccc(F)c(Cl)c1` (centres undefined), the RP-LC retention time came out at 1040 s.
The value for `COCc1nc(-c2ccc(OC3CCN(C(=O)C4(c5ccc(OC)cc5)CC4)C3)cc2)no1` (centres undefined) was 896 s; that for `Cc1nc(-c2cc(S(=O)(=O)N3CCC(C(=O)NCc4ccco4)CC3)c(C)s2)no1` was 837 s.
As to `CCN1C(=O)c2cccnc2Sc2cc(NC(C)=O)ccc21`, the RP-LC retention time was determined as 627 s.
In turn, `O=C(C1CCC1)N1CCc2sc(S(=O)(=O)NCc3ccccc3)cc2C1` yielded an RP-LC retention time of 847 s.
`CN(C)c1ccc(CNC(=O)CCCN2C(=O)CCn3nc(-c4cn(C)c5ccccc45)cc32)cc1`: the RP-LC retention time was 602 s.
With `O=C(c1ccc(-n2c(-c3ccccc3)nc3cccnc32)cc1)N1CCN(c2ccccn2)CC1`, the RP-LC retention time amounted to 613 s.
In the case of `CCN(CC)CCCNC(=O)c1nnc(-c2ccc(S(=O)(=O)N3CCOCC3)cc2)o1`, the RP-LC retention time was 600 s.
Regarding `CCc1cc(C2CCCN2C(=O)Nc2ccccc2C)on1` (centres undefined), the RP-LC retention time is 780 s.
In turn, `CC(C)(C)c1ccc(C(=O)Nc2nnc(C3CC(=O)N(c4ccc(F)cc4)C3)o2)cc1` (centres undefined) came in with an RP-LC retention time of 872 s.
On to `COc1ccc(-c2c(C)noc2NC(C)=O)cc1S(=O)(=O)NCc1ccc(C)o1`, for which the RP-LC retention time turned out to be 714 s.
`Cc1c(O)cnc2nn(-c3ccccc3)c(=N)n12` displayed an RP-LC retention time of 822 s.
On to `CCOc1ccc(C2=NC3(CCN(CC)CC3)NC(c3ccccc3O)C2)cc1` (centres undefined), for which the RP-LC retention time worked out at 583 s.
The value for `CCc1ccccc1NS(=O)(=O)c1c(C)sc(C)c1-c1cc(C(F)(F)F)on1` was 1240 s.
Then `Fc1ccc(OCc2nn3c(CSc4ccccc4)nnc3s2)cc1`, with 966 s; and `COc1ccc(NC(=O)N2CCC3(CC2)NC(=O)c2ccccc2N3C)cc1`, with 700 s.
Regarding `CCN1C(=O)c2cc(C(=O)Nc3cc(C)cc(C)c3)nn2CC1(C)C(=O)NC1CCCC1` (centres undefined), the RP-LC retention time worked out at 917 s.
Compound `COc1ccc(S(=O)(=O)N2C[C@H]3CN(C(=O)Nc4ccccc4C)C[C@@H](C2)O3)cc1` had an RP-LC retention time of 771 s.
`O=C(Nc1ccc(F)cc1F)C1CCc2nc(N3CCOCC3)ncc2C1` (centres undefined) came in with an RP-LC retention time of 734 s.
On to `Cc1cc(N2CCN(C)CC2)nc2ccc(NC(=O)NC3CCCC3)cc12`, for which the RP-LC retention time came to 568 s.
In turn, `CC1CCC2(CC1)NC(=O)N(CC(=O)N(C)c1ccccc1)C2=O` (centres undefined) displayed an RP-LC retention time of 805 s.
`CCN(CC)c1ccc(C2=NNC(=O)CC2C)cc1[N+](=O)[O-]` (centres undefined) showed an RP-LC retention time of 773 s.
With `COc1ccc(NC(=O)c2sc(N3CCCC3=O)nc2C)cc1Cl`, the RP-LC retention time was found to be 809 s.
`CC(C)C(NC(=O)Nc1ccc2c(c1)OCCO2)C(=O)N1CCc2ccccc21` (centres undefined): the RP-LC retention time was 609 s.
Compound `NS(=O)(=O)c1ccc(CCNC(=O)c2nc(Cn3nc(-c4ccc(F)cc4)ccc3=O)no2)cc1` yielded an RP-LC retention time of 733 s.
The compound `Cc1nc2cc3c(cc2n1CC(=O)Nc1cccc(C(F)(F)F)c1)OCCO3` gave an RP-LC retention time of 712 s.
`COc1ccc(-n2ncc3c(=O)n(Cc4nc(-c5cccc(C)c5)no4)cnc32)cc1` registered an RP-LC retention time of 1050 s.
Then `CCOCCCNC(=O)c1csc(-c2ccnc(N3CCCC3)c2)n1`, with 592 s; and `CCNC(=O)NCC1CCN(C(=O)NC(C)(C)C)CC1`, with 597 s.
Then `CCCNC(=O)c1nnc(-c2ccc(S(=O)(=O)N3CCOCC3)cc2)o1`, with 724 s; and `Cc1nn2c(N3CCN(c4ccccn4)CC3)cc(C(C)C)nc2c1-c1ccccc1`, with 823 s.
The value for `Cc1noc(C2(NC(=O)Nc3cccc(Cl)c3C)CCCCC2)n1` was 872 s; that for `O=C(c1ccc2c(c1)OCO2)N1CCN(c2cc(-c3ccc(Cl)cc3)[nH]n2)CC1` was 836 s.
Compound `Cc1ccc(N2CCC(NC(=O)NCCc3ccccc3)C2=O)cc1C` (centres undefined) returned an RP-LC retention time of 790 s.
Compound `COC(=O)c1ncn2c1C(=O)N(c1cc(C)cc(C)c1)C(C)(C(=O)NC1CCCC1)C2` (centres undefined) showed an RP-LC retention time of 734 s.
Consider `C=Cc1ccc(CN2CCCN(c3ncccc3-c3nc(C4CC4)no3)CC2)cc1`, for which the RP-LC retention time worked out at 757 s.
Then `O=C(C1CC(=O)N(c2n[nH]c3ccccc23)C1)N1CCC(c2noc3cc(F)ccc23)CC1` (centres undefined), with 766 s.
`O=c1c2sccc2n(Cc2nc(-c3ccc(F)cc3)no2)c(=O)n1-c1ccc(Cl)cc1` came in with an RP-LC retention time of 1070 s.
`Cn1nc(C(=O)NCc2ccc(F)cc2)c2c1CCN(C(=O)c1ccc(Br)o1)C2` registered an RP-LC retention time of 790 s.
For the compound `Cc1ncc2c(n1)CCCN(CC(=O)NC1CCCCCC1)C2=O`, the RP-LC retention time is 682 s.
On to `COc1ccc(N2CCN(c3ncc4c(n3)CCN(Cc3ccc(C)cc3)C4)CC2)cc1`, for which the RP-LC retention time stood at 675 s.
Regarding `COc1ccc(NC(=O)C2CCCN2S(=O)(=O)c2cc3c(cc2C)NC(=O)C(C)O3)cc1Cl` (centres undefined), the RP-LC retention time was 824 s.
Then `O=C(C1=CN(c2ccc(F)cc2)c2cc(F)ccc2S1(=O)=O)N1CCOCC1`, with 769 s.
`CCCN1C(=O)NC(=O)C2NCNC21` (centres undefined): the RP-LC retention time was 604 s.
`O=C(Cn1cnc2ccccc21)NCCCn1ccc2ccccc21` came in with an RP-LC retention time of 605 s.
